The test system of one experiment is HOC. In words: Oxidation stress (ROS), Muse Oxidative Stress Kit. In kind it is cell-based, human. To be noted: 1 µM (DMSO 5% V/V), 24 h. Here is the method:
Selenoesters (K3, K4, K7) were tested for their ability to generate reactive oxygen species (ROS). HOC was exposed to selenoesters in concentration of 1 µM for 24 h. DMSO (5% V/V) was used as a positive control. The required volume of DMSO (1% V/V) was added to untreated cells. ROS are essential biomolecules in cellular regulation as a part of the defence mechanisms. On the other hand, their participation in cell signalling may affect apoptosis and other death pathways. In the assay, dihydroethidium (DHE) reacts with superoxide anions by forming DNA-binding fluorophore ethidium bromide. Based on fluorescence, the cell population can be distinguished into ROS negative and ROS positive cells containing oxygen radicals.
To determine the oxidation stress potential of selected selenoesters, HOC were seeded into 24-well plates at a density 2 × 10^5 cells/mL for 24 h according to the above mentioned procedure. Afterwards, the plates were washed 1 ×with PBS and fresh DMEM medium containing compounds K3, K4, K7 (final concentration—1 µM) was added for 24 h, except for the positive and negative control. […] as the oxidation stress inductor. After incubation, the cells were washed 1× with PBS and released from the surface by using a trypsin–EDTA solution. After trypsin inhibition by medium addition, the cell suspensions were centrifuged (100×g, 5 min, 25 °C), supernatants were removed, and cell pellets resuspended in 1× assay buffer. All reagents were prepared immediately before use. Afterwards, 10 µL of the cell suspension were mixed with 190 µL of working solution (Muse Oxidative stress reagent) and stained for 30 min at 37 °C. Subsequently, the […] were analysed by Guava Muse Cell Analyzer. Oxidation stress detection was performed following the instructions provided by the manufacturer.

Experiment [1] relates to HOC (human parental ovarian adenocarcinoma, A2780). Kind of experiment: Cytotoxic activity, 2D, resazurin, 72 h. Type of experiment: cell-based. To be noted: for IC50: Homo sapiens, A2780, 72 h, 2D, 72 h, mean ± SEM, n=3, read-out: HOC IC50; for SI HEK293/HOC: IC50 HEK293 / IC50 HOC. Here is the method:
(§1) The cytotoxic potential of selenoesters was tested on several cancer cell lines—HOC (human parental ovarian adenocarcinoma, HOC, A2780, Sigma-Aldrich), HOC/ADR (sub-line resistant to Adriamycin, A2780/ADR, Sigma-Aldrich), MCF-7 (human breast adenocarcinoma, ATCC®, HTB-22TM), MCF-7/PAX (resistant sub-line established by gradual adaptation of parental cells to increased concentration of paclitaxel; kindly provided by Division of Cell and Molecular Biology, Third Faculty of Medicine, Charles University, Czech Republic) and on one non-cancerous cell line—HEK293 (human embryonic kidney cell line, Leibniz Institute, DSMZ-German Collection of Microorganisms and Cell Cultures GmbH). All mentioned cell lines were authenticated using short tandem repeat (STR) profiling. Cell lines were cultivated in DMEM medium (10% FBS, 1× antibiotic antimycotic solution), except for HEK293 cell line which was cultivated without antibiotics. In case of the resistant cell lines, the medium was supplemented with a required concentration of cytostatics to maintain resistance (HOC/ADR—100 nM Adriamycin; MCF-7/PAX—300 nM paclitaxel). All cells were cultivated in a CO2 incubator (5% CO2, 37 °C, Thermo Fisher Scientific).
(§2) For the experiment, the cells at passage number 5–20 were seeded at a 1 × 10^5 cells/mL concentration into 96-well plates to 100 µL final volume. The final concentration range of the compounds was 0.63–20 µM. After an incubation of 72 h, the plates were washed 1× with PBS and resazurin solution (0.03 mg/mL in 1× PBS) was added. After 1 h of incubation, the fluorescence signal was recorded (ex./em. 560/590 nm).
(§3) The selectivity index (SI) was determined as the ratio of IC50 value for the non-cancerous cells to IC50 for the cancer cell line. For resistant cell lines, the collateral sensitivity (CS) was calculated as the ratio of IC50 value in sensitive tumour cells to IC50 in the resistant cancer cell line. In both cases, the selectivity is considered as: (1) strongly selective when SI or CS value is above 6, (2) moderately selective when SI or CS is between 3 and 6, (3) slightly selective when SI or CS is between 1 and 3 and (4) non-selective when SI or CS is less than 1[23].
(The colour change of resazurin is a common sign of viable cells or microbes.)

Experiment [2] relates to MCF-7 (human breast adenocarcinoma). In words: Cytotoxic activity, 2D, resazurin, 72 h. In kind it is cell-based. To be noted: for IC50: Homo sapiens, MCF7, 2D, 72 h, mean ± SEM, n=3, read-out: MCF-7 IC50; for SI HEK293/MCF-7: IC50 HEK293 / IC50 MCF-7. As to the method: as §1, §2, §3
The subject of experiment [3] is HOC/ADR (sub-line resistant to Adriamycin, A2780/ADR). Kind of experiment: Cytotoxic activity, 2D, resazurin, 72 h. In kind it is cell-based, human. Particulars: for IC10 / IC50: Homo sapiens, A2780 ADR, 72 h; for IC10: HOC/ADR, concentration that should not decrease viability under 90%, read-out: IC10 of compounds; for IC50: 2D, mean ± SEM, n=3, read-out: HOC/ADR IC50; for SI HEK293/HOC/ADR: IC50 HEK293 / IC50 HOC/ADR; for CS (collateral sensitivity index): IC50 HOC / IC50 HOC/ADR. As to the method:
as §1, §2, §3

The test system of experiment [4] is MCF-7/PAX (paclitaxel-resistant sub-line). In words: Cytotoxic activity, 2D, resazurin, 72 h. Type of experiment: cell-based, human. To be noted: for IC50: Homo sapiens, MCF7, 2D, 72 h, mean ± SEM, n=3, read-out: MCF-7/PAX IC50; for SI HEK293/MC7-7/PAX: IC50 HEK293 / IC50 MCF-7/PAX; for CS (collateral sensitivity index): IC50 MCF-7 / IC50 MCF-7/PAX. Here is the method: as §1, §2, §3

Experiment [5] deals with HEK293 (human embryonic kidney cell line). Kind of experiment: Cytotoxic activity, non-cancerous cell line, resazurin, 72 h. In kind it is cell-based. Particulars: Homo sapiens, HEK293; 72 h, mean ± SEM, n=3. As to the method:
as §1, §2, §3

Another experiment deals with HOC/ADR. In words: Sensitization of MDR cell line to Adriamycin. Particulars: for Fold change: IC50 of Adriamycin / IC50 of Adriamycin with IC10 dose of compound. Type of experiment: cell-based, human. Here is the method:
To determine the sensitization potential of compounds, HOC/ADR and MCF-7/PAX were used. Based on the cytotoxic potential of the compounds against several cancer and non-cancerous cell lines (Table 1), the concentrations of applied compounds were adjusted. IC10 values was considered as the concentrations, which should not decrease the cell viability under 90%. After the addition of compounds, Adriamycin (concentration range 0.1–20 µM) and paclitaxel (concentration range 0.1–10 µM) were added to HOC/ADR and MCF-7/PAX, respectively. The sensitization potential of the compounds was determined as the ratio of the IC50 of cytostatic agent (Adriamycin/paclitaxel) to the IC50 of cytostatic agent affected by the compound in concentration corresponding to the IC10 value. Fold change greater than 1 indicated synergic effect of cytostatic agent and the tested compound.
After that, the plates were washed 1× with PBS and fresh DMEM medium supplemented with tested compounds at final concentration corresponding their IC10 value was added, except for positive control wells. Subsequently, Adriamycin (concentration range 0.1–20 µM) or paclitaxel (concentration range 0.1–10 µM) was added to the appropriate cell line for 72 h. After incubation, the cells were washed 1× with PBS and the resazurin solution (0.03 mg/mL) was added to evaluate the cell viability as described above. IC50 values of cytostatics were calculated for both the control and compounds; a fold change was counted up. When this fold change is higher than 1 indicates a synergism between the tested cytostatic agent and the compound, while a fold change lower than 1 means an antagonism. Fold change=IC50value of cytostatic treated cells only/IC50value of cytostatic treated cells in addition of the compound

Experiment [6] relates to prostate metastatic cancer line. Also noted: method as in PMID 21549092. Particulars: cited from earlier work.

Take `C[S+](C)[O-]` [DMSO (5% V/V), dimethyl sulfoxide, reference compound]: in the experiment with HOC, the “ROS(+) cells” value is on record as 68.7 ± 1.9 % and the “ROS(−) cells” value came out at 31.8 ± 2.3 %.
With `N#CC[Se]C(=O)c1ccccc1C(F)(F)F` [N4], in experiment [1], the IC50 was found to be 2400 ± 100 nM and the “SI HEK293/HOC” value was 2.2 ± 0.2. In addition, in experiment [2], the IC50 is 2100 ± 100 nM and the “SI HEK293/MCF-7” value worked out at 2.5 ± 0.2. For the same compound, in experiment [3], the IC10 (commonly the concentration at which the effect reaches the 10% level) is 2400 nM, the IC50 stood at 3700 ± 200 nM, the “SI HEK293/HOC/ADR” value is 1.4 ± 0.1 and the “CS (collateral sensitivity index)” value was found to be 0.6 ± 0.1. In experiment [4], the IC50 amounted to 2400 ± 200 nM, the “SI HEK293/MC7-7/PAX” value is 2.1 ± 0.2 and the “CS (collateral sensitivity index)” value was 0.9 ± 0.1. The same compound gave an IC50 in experiment [5] of 5200 ± 300 nM. For the same compound, the Fold change entry in the experiment with HOC/ADR is “(1.3 ± 0.1)×”.
For the compound `N#CC[Se]C(=O)c1cccc(C(F)(F)F)c1` [N5], in experiment [1], the IC50 was found to be 2300 ± 100 nM and the “SI HEK293/HOC” value is 2.7 ± 0.2. Also, in experiment [2], the IC50 amounted to 2500 ± 200 nM and the “SI HEK293/MCF-7” value is recorded as 2.4 ± 0.3. Also, in experiment [3], the IC10 came to 2500 nM, the IC50 came to 4500 ± 200 nM, the “SI HEK293/HOC/ADR” value worked out at 1.3 ± 0.1 and the “CS (collateral sensitivity index)” value was 0.5 ± 0.1. In experiment [4], the IC50 stood at 2700 ± 200 nM, the “SI HEK293/MC7-7/PAX” value is recorded as 2.3 ± 0.2 and the “CS (collateral sensitivity index)” value is reported as 0.9 ± 0.2. This compound came in with an IC50 in experiment [5] of 6000 ± 200 nM. The Fold change result with HOC/ADR is reported as “(1.2 ± 0.2)×”.
Take `N#CC[Se]C(=O)c1ccc(F)c(Cl)c1` [N6]: in experiment [1], the IC50 was found to be 2400 ± 200 nM and the “SI HEK293/HOC” value stood at 2.1 ± 0.2. In experiment [2], the IC50 stood at 1700 nM and the “SI HEK293/MCF-7” value worked out at 2.9 ± 0.1. In experiment [3], the IC10 is 2600 nM, the IC50 stood at 3600 nM, the “SI HEK293/HOC/ADR” value was 1.4 ± 0.0 and the “CS (collateral sensitivity index)” value came out at 0.7 ± 0.1. Further, in experiment [4], the IC50 came out at 1900 ± 100 nM, the “SI HEK293/MC7-7/PAX” value is given as 2.6 ± 0.1 and the “CS (collateral sensitivity index)” value stood at 0.9 ± 0.0. This compound also registered an IC50 in experiment [5] of 4900 ± 100 nM. Moreover, in the experiment with HOC/ADR (IC10 dose of compound), the “increase of the IC50 of Adriamycin” value is recorded as “almost threefold”. Also, the Fold change result in the experiment with HOC/ADR is listed as “(0.4 ± 0.0)×”.
On to `N#CC[Se]C(=O)c1cc(C(F)(F)F)cc(C(F)(F)F)c1` [N7], for which, in experiment [1], the IC50 was 2900 ± 100 nM and the “SI HEK293/HOC” value turned out to be 2.3 ± 0.3. Besides, in experiment [2], the IC50 was determined as 2200 ± 100 nM and the “SI HEK293/MCF-7” value is 3.0 ± 0.5. Further, the “selectivity versus HEK293 (in words)” value in experiment [2] (sensitive MCF-7) is listed as “moderate selectivity”. In experiment [3], the IC10 came out at 3100 nM, the IC50 was determined as 5700 ± 200 nM and the “SI HEK293/HOC/ADR” value stood at 1.2 ± 0.1. Besides, in experiment [4], the IC50 is 2700 ± 300 nM, the “SI HEK293/MC7-7/PAX” value is 2.5 ± 0.4 and the “CS (collateral sensitivity index)” value is reported as 0.8 ± 0.1. The compound also had an IC50 in experiment [5] of 6600 ± 600 nM. Moreover, the Fold change result with HOC/ADR is given as “(1.1 ± 0.1)×”.
As to `CC(=O)O[C@@]12CO[C@@H]1C[C@H](O)[C@@]1(C)C(=O)[C@H](O)C3=C(C)[C@@H](OC(=O)[C@H](O)[C@@H](NC(=O)OC(C)(C)C)c4ccccc4)C[C@@](O)([C@@H](OC(=O)c4ccccc4)[C@H]21)C3(C)C` [docetaxel], the growth inhibition in experiment [6] is on record as 22%.
Consider `O=[Se]([O-])[O-].[Na+].[Na+]` [sodium selenite], for which the growth inhibition in experiment [6] is recorded as 24%.

The values are drawn from paper PMC9023544, “Ketone-selenoesters as potential anticancer and multidrug resistance modulation agents in 2D and 3D ovarian and breast cancer in vitro models” (Scientific Reports, 2022).
